According to patent US20240285571A1, “METHODS OF TREATING BONE INFECTIONS” (MICROBION CORPORATION, priority 2020, published 2024):

Tests used:
[1] = tested on: Actinomyces turicensis; test: MIC of baseline clinical isolates (Example 8); format: cell-based; settings: Actinomyces turicensis baseline isolates (N′ = 1), central laboratory, mITT
Procedure: (§1) Microbiology was assessed on Day 1 and at the time of any subsequent surgical procedure at the index site. Samples were collected from the infected bone site or involved tissue adjacent to any implant(s), swabs of the deep infection site, and the superficial tissue/wound closure/sinus tract site. […] Parallel sets of samples were analyzed by the local clinical site laboratory to guide patient antibiotic treatment.

[2] = tested on: Anaerococcus murdochii; test: MIC of baseline clinical isolates (Example 8); format: cell-based; settings: Anaerococcus murdochii baseline isolates (N′ = 1), central laboratory, mITT
Procedure: as §1

[3] = tested on: Clostridium sphenoides; test: MIC of baseline clinical isolates (Example 8); format: cell-based; settings: Clostridium sphenoides baseline isolates (N′ = 1), central laboratory, mITT
Procedure: as §1

[4] = tested on: Peptoniphilus gorbachii; test: MIC of baseline clinical isolates (Example 8); format: cell-based; settings: Peptoniphilus gorbachii baseline isolates (N′ = 1), central laboratory, mITT
Procedure: as §1

[5] = tested on: Cutibacterium [Propionibacterium] acnes; test: MIC of baseline clinical isolates (Example 8); format: cell-based; settings: Cutibacterium (Proprionibacterium) acnes baseline isolates (N′ = 3), central laboratory, mITT
Procedure: as §1

[6] = tested on: F. magna; test: MIC of baseline clinical isolates (Example 8); format: cell-based; settings: Finegoldia magna baseline isolates (N′ = 4), central laboratory, mITT
Procedure: as §1

[7] = tested on: non-speciated Anaerococcus; test: MIC of baseline clinical isolates (Example 8); format: cell-based; settings: Anaerococcus non-speciated baseline isolates (N′ = 1), central laboratory, mITT
Procedure: as §1

[8] = tested on: vancomycin-intermediate Staphylococcus aureus; test: Broth microdilution MIC (Example 6); format: cell-based
Procedure: (§2) Test Compounds: The test agents BisEDT (MB-1-B3; Lot No. ED268-1-11-01), MB-2B, and MB-6 were stored at room temperature, in the dark, until assayed. The solvent and diluent for the test agents was DMSO (Sigma; St. Louis, MO; Lot No. SHBB9319V) and the prepared stock concentration was 6,464 μg/mL (101× the final test concentration).
(§3) Test compounds were evaluated at a concentration range of 0.06-64 μg/mL. For Gram-negative test isolates, amikacin and ceftazidime (alone and with clavulanate at a fixed concentration of 4 μg/mL) were evaluated over a concentration range of 0.06-64 μg/mL; meropenem and levofloxacin were evaluated over a concentration range of 0.008-8 μg/mL. For the testing of S. aureus, clindamycin, daptomycin, levofloxacin and vancomycin were evaluated at a concentration range of 0.008-8 μg/mL; linezolid was tested from 0.03-32 μg/mL.
(§4) Media: Cation-adjusted Mueller Hinton broth (CAMHB; BD; Lot No. 8190586) was used as the medium for testing (2, 3). For testing daptomycin, calcium was supplemented with […] Ca^2+, resulting in a final concentration of […] Ca^2+ (2, 3).
(§5) MIC Assay Procedure: MIC values were determined using a broth microdilution procedure described by CLSI (2, 3). Automated liquid handlers (Multidrop 384, Labsystems, Helsinki, Finland; Biomek 2000 and Biomek F X, Beckman Coulter, Fullerton CA) were used to conduct serial dilutions and liquid transfers.
(§6) To prepare the drug mother plates, which would provide the serial drug dilutions for the replicate daughter plates, the wells of columns 2 through 12 of standard 96-well microdilution plates (Costar 3795) were filled with 150 μl of the appropriate diluent for each row of drug. The test articles and comparator compounds (300 μl at 101× the highest concentration to be tested) were dispensed into the appropriate wells in column 1. The Biomek 2000 was then used to make 2-fold serial dilutions in the mother plates from column 1 through column 11. The wells of column 12 contained no drug and served as the organism growth control wells for the assay.
(§7) The daughter plates were loaded with 190 μL per well of RPMI using the Multidrop 384. The test panels were prepared on the Biomek FX instrument which transferred 2 μL of drug solution from each well of a mother plate to the corresponding well of each daughter plate in a single step.
(§8) A standardized inoculum of each test organism was prepared per CLSI methods to equal a 0.5 McFarland standard, followed by a dilution of 1:20. The plates were then inoculated with 10 μL of the diluted inoculum using the Biomek 2000 from low to high drug concentration resulting in a final concentration of approximately 5×10^5 CFU/mL.
(§9) Plates were stacked 3-4 high, covered with a lid on the top plate, placed into plastic bags, and incubated at 35° C. for 16 to 20 hr (vancomycin was read for S. aureus after 24 hr incubation time). The MIC was recorded as the lowest concentration of drug that inhibited visible growth of the organism.

[9] = tested on: relevant ATCC QC organisms; settings: S. aureus ATCC 29213; CLSI established QC range; cited from earlier work
[10] = tested on: non-speciated Corynebacterium; test: MIC of baseline clinical isolates (Example 8); format: cell-based; settings: Corynebacterium non-speciated baseline isolates (N′ = 2), central laboratory, mITT
Procedure: (§10) Microbiology was assessed on Day 1 and at the time of any subsequent surgical procedure at the index site. Samples were collected from the infected bone site or involved tissue adjacent to any implant(s), swabs of the deep infection site, and the superficial tissue/wound closure/sinus tract site. Isolation and identification of aerobic and anerobic bacteria was conducted at a central microbiology laboratory (IHMA, Schaumburg, IL) and susceptibility of the isolates to MBN-101 (BisEDT) and comparator agents was performed per Clinical and Laboratory Standards Institute (CLSI). Parallel sets of samples were analyzed by the local clinical site laboratory to guide patient antibiotic treatment.

[11] = tested on: Corynebacterium jeikeium; test: MIC of baseline clinical isolates (Example 8); format: cell-based; settings: Corynebacterium jeikeium baseline isolates (N′ = 2), central laboratory, mITT
Procedure: as §10

[12] = tested on: Corynebacterium amycolatum; test: MIC of baseline clinical isolates (Example 8); format: cell-based; settings: Corynebacterium amycolatum baseline isolates (N′ = 1), central laboratory, mITT
Procedure: as §10

[13] = tested on: Streptococcus oralis; test: MIC of baseline clinical isolates (Example 8); format: cell-based; settings: Streptococcus oralis baseline isolates (N′ = 1), central laboratory, mITT
Procedure: as §10

[14] = tested on: Corynebacterium resistens; test: MIC of baseline clinical isolates (Example 8); format: cell-based; settings: Corynebacterium resistens baseline isolates (N′ = 1), central laboratory, mITT
Procedure: as §10

[15] = tested on: Dermabacter hominis; test: MIC of baseline clinical isolates (Example 8); format: cell-based; settings: Dermabacter hominis baseline isolates (N′ = 1), central laboratory, mITT
Procedure: as §10

[16] = tested on: relevant ATCC QC organisms; test: Broth microdilution MIC, QC (Example 6); format: cell-based; settings: S. aureus ATCC 29213
Procedure: as §2, §3
Organisms: The test organisms as shown in Tables 11-15 consisted of clinical isolates from the Micromyx (MMX) repository and reference strains from the American Type Culture Collection (ATCC; Manassas, VA), National Collection of Type Cultures (NCTC; Public Health England, Salisbury, UK), the Network on Antimicrobial Resistance in Staphylococcus aureus (NARSA; BEI Resources, Manassas, VA), and the Centers for Disease Control and Prevention (CDC; Atlanta, GA). The test organisms were maintained frozen at −80° C. Prior to testing, the isolates were cultured on Tryptic Soy Agar with 5% sheep blood (BAP; Becton Dickson [BD]/BBL; Sparks, MD; Lot Nos. 9080650 and 9108563) at 35° C. Relevant ATCC quality control (QC) organisms (Table 16) were included during testing in accordance with CLSI guidelines (3). Further details on the genetic characterization of the isolates where available can be found in Table 17.
as §4, §5, §6, §7, §8, §9

[17] = tested on: S. aureus (MRSA, MSSA); test: MIC of baseline clinical isolates (Example 8); format: cell-based; settings: Staphylococcus aureus, MRSA baseline isolates (N′ = 4), central laboratory, mITT
Procedure: as §1

[18] = tested on: Staphylococcus hominis; test: MIC of baseline clinical isolates (Example 8); format: cell-based; settings: Staphylococcus hominis baseline isolates (N′ = 1), central laboratory, mITT
Procedure: as §1

[19] = tested on: Staphylococcus pasteuri; test: MIC of baseline clinical isolates (Example 8); format: cell-based; settings: Staphylococcus pasteuri baseline isolates (N′ = 1), central laboratory, mITT
Procedure: as §1

[20] = tested on: Staphylococcus lugdunensis; test: MIC of baseline clinical isolates (Example 8); format: cell-based; settings: Staphylococcus lugdunensis baseline isolates (N′ = 3), central laboratory, mITT
Procedure: as §1

[21] = tested on: S. epidermidis; test: MIC of baseline clinical isolates (Example 8); format: cell-based; settings: Staphylococcus epidermidis baseline isolates (N′ = 5), central laboratory, mITT
Procedure: as §1

[22] = tested on: Staphylococcus arlettae; test: MIC of baseline clinical isolates (Example 8); format: cell-based; settings: Staphylococcus arlettae baseline isolates (N′ = 1), central laboratory, mITT
Procedure: as §1

[23] = tested on: Staphylococcus haemolyticus; test: MIC of baseline clinical isolates (Example 8); format: cell-based; settings: Staphylococcus haemolyticus baseline isolates (N′ = 1), central laboratory, mITT
Procedure: as §1

Structure (SMILES): Cc1ncc([N+](=O)[O-])n1CCO [MTZ]
- Mean MIC [1]: 16.00 µg/mL
- n (% resistant) [1]: 1 (100.0) n (%)
- Mean MIC [2]: 1.00 µg/mL
- n (% resistant) [2]: 0 (0.0) n (%)
- Mean MIC [3]: 0.32 µg/mL
- n (% resistant) [3]: 0 (0.0) n (%)
- Mean MIC [4]: 0.50 µg/mL
- n (% resistant) [4]: 0 (0.0) n (%)
- Mean MIC [5]: 16.00 µg/mL
- n (% resistant) [5]: 3 (100.0) n (%)
- Mean MIC [6]: 0.56 µg/mL
- n (% resistant) [6]: 0 (0.0) n (%)
- Mean MIC [7]: 16.00 µg/mL
- n (% resistant) [7]: 1 (100.0) n (%)

Structure (SMILES): CN[C@H](CC(C)C)C(=O)N[C@H]1C(=O)N[C@@H](CC(N)=O)C(=O)N[C@H]2C(=O)N[C@H]3C(=O)N[C@H](C(=O)N[C@H](C(=O)O)c4cc(O)cc(O)c4-c4cc3ccc4O)[C@H](O)c3ccc(c(Cl)c3)Oc3cc2cc(c3O[C@@H]2O[C@H](CO)[C@@H](O)[C@H](O)[C@H]2O[C@H]2C[C@](C)(N)[C@H](O)[C@H](C)O2)Oc2ccc(cc2Cl)[C@H]1O [VAN]
- MIC ([8]; S. aureus isolate NRS 1 (hVISA)): 4 µg/mL
- MIC ([8]; S. aureus isolate NRS 2): 0.5 µg/mL
- MIC ([8]; S. aureus isolate NRS 3): 8 µg/mL
- MIC ([8]; S. aureus isolate NRS 4): 4 µg/mL
- MIC ([8]; S. aureus isolate NRS 13): 2 µg/mL
- MIC ([8]; S. aureus isolate NRS 18): 4 µg/mL
- MIC ([8]; S. aureus isolate NRS 22): 4 µg/mL
- MIC ([8]; S. aureus isolate NRS 24 (hVISA)): 2 µg/mL
- MIC ([8]; S. aureus isolate NRS 27): 2 µg/mL
- MIC QC range (in parentheses) [9]: (0.5-2) μg/mL
- Mean MIC [10]: 0.12 µg/mL
- n (% resistant) [10]: 0 (0.0) n (%)
- n (% resistant) [11]: 0 (0.0) n (%)
- n (% resistant) [12]: 0 (0.0) n (%)
- Mean MIC [13]: 0.50 µg/mL
- n (% resistant) [13]: 0 (0.0) n (%)
- Mean MIC [14]: 1.00 µg/mL
- n (% resistant) [14]: 0 (0.0) n (%)
- Mean MIC [15]: 0.25 µg/mL
- n (% resistant) [15]: 0 (0.0) n (%)
- MIC [16]: 0.5 µg/mL
- Mean MIC [17]: 1.25 µg/mL
- n (% resistant) [17]: 0 (0.0) n (%)
- Mean MIC [18]: 2.00 µg/mL
- n (% resistant) [18]: 0 (0.0) n (%)
- Mean MIC [19]: 1.00 µg/mL
- n (% resistant) [19]: 0 (0.0) n (%)
- Mean MIC [20]: 0.83 µg/mL
- n (% resistant) [20]: 0 (0.0) n (%)
- Mean MIC [21]: 150 µg/mL
- n (% resistant) [21]: 0 (0.0) n (%)
- Mean MIC [22]: 2.00 µg/mL
- n (% resistant) [22]: 0 (0.0) n (%)
- Mean MIC [23]: 1.00 µg/mL
